Data taken from patent publication US11273167B2, “Compositions and methods for modulating ABHD2 activity” (The Regents of the University of California, priority 2015, dated 2022).
Entries after “also recorded” stand apart in the source; their conditions may differ. Read-outs that look alike come from different tables or passages of the source.

What was measured:
[1] = target: human CatSper channel (Homo sapiens, UniProt Q7RTX7+Q86XQ3+Q8NEC5+Q96P56); assay: Whole-cell patch-clamp recording of CatSper currents (ICatSper) from human spermatozoa; format: cell-based
Method: (§1) All CatSper recordings was performed as described in (Lishko et al., 2013; Lishko et al., 2011). Briefly, gigaohm seal between the patch pipette and human spermatozoon was formed at the cytoplasmic droplet. Spermatozoa were patched either at the cytoplasmic droplet or, if the cytoplasmic droplet was inconspicuous, at the neck region. Seals were formed in high saline (HS) solution containing: 130 mM NaCl, 5 mM KCl, 1 mM MgSO4, 2 mM CaCl2, 5 mM glucose, 1 mM sodium pyruvate, 10 mM lactic acid, 20 mM HEPES, pH 7.4 adjusted with NaOH, 320 mOsm/L. Transition into the whole-cell mode was performed by applying short voltage pulses. Access resistance was 25-40 M. Cells were stimulated every 5 s. Data were sampled at 2-5 kHz and filtered at 1 kHz. Pipettes (11-17 MΩ) for whole-cell patch-clamp recordings of monovalent CatSper currents were filled with (in mM): 130 Cs-methanesulfonate, 70 HEPES, 3 EGTA, 2 EDTA, 0.5 TrisHCl, pH 7.4 adjusted with CsOH. Bath divalent free (DVF) solution for recording of monovalent CatSper currents contained (in mM): 140 Cs-methanesulfonate, 40 HEPES, 1 EDTA, pH 7.4 adjusted with CsOH. HEPES was substituted for MES in the event when acidic extracellular pH was used. HS solution was used to record baseline current while measuring monovalent CatSper currents (Ca^2+ in HS solution inhibits monovalent CatSper currents and causes Ca^2+-dependent inactivation of CatSper channels). Osmolarities of above mentioned solutions were approximately 321 mOsm/L and 335 mOsm/L for bath and pipette solutions, respectively. All electrophysiology experiments were performed at ambient temperature. IcatSper were elicited by voltage ramps from a holding potential of 0 mV. Ramps were applied from −80 mV to +80 mV. Data were analysed with Origin 7.0 and Clampfit 9.2. Statistical data were calculated as the mean±S.E.M., and (n) indicates number of experiments. To determine IcatSper inactivation rate current densities extracted from voltage ramps and acquired at +80 pA were plotted against time. The data were fitted with Boltzmann equation y=1/(1+exp((x−t)/dx)) and mean ti numbers were determined from (n) independent experiments. Statistical significance (t-test) is indicated by (**, p≤0.01 and *, p≤0.05).
(§2) Data were analyzed with Origin 7.0 and Clampfit 9.2. Statistical data were calculated and represented everywhere in text as the mean±S.E.M., and (n) indicates number of experiments. To determine ICatSper inactivation rate current densities extracted from voltage ramps and acquired at +80 pA were plotted against time. The data were fitted with Boltzmann equation y=1/[1+exp((x−τ)/dx)] and mean τ numbers were determined from (n) independent experiments. Hill equation was used to build dose-response curve: y=Vmax*x^n/(k^n+x^n). where n defines Hill slope factor, k defines IC50, and Vmax is close to 100% inhibition. Statistical significance (t test) is indicated by (****P<0.0001, ***P<0.001, **P<0.005 and *P<0.05).

[2] = test system: human CatSper channel; assay: as above; format: cell-based; details: for activation of CatSper current (ICatSper): whole-cell patch clamp; for effect on P4-dependent activation of CatSper (CatSper P4 sensitivity): human spermatozoa treated with the agent, then P4
Method: as §1, §2

[3] = target: T1, mouse CatSper (Mus musculus, UniProt A2ARP9+Q80W99+Q8BVN3+Q91ZR5); assay: Whole-cell patch-clamp recording of ICatSper from mouse spermatozoa; format: cell-based
T1 construct: Mouse spermatozoa were isolated from cauda epididymis; endogenous in cells; host or cells: mouse cauda epididymal spermatozoa

[4] = test system: mouse spermatozoa; assay: Acrosome exocytosis assessment in live capacitated mouse sperm; format: cell-based; details: 3 μM P4, 3 μM AA
[5] = target: T2, ABHD2 (Homo sapiens, UniProt P08910); assay: P4* UV cross-linking and streptavidin pull-down from human sperm, ABHD2 western blot; format: binding; details: 250 nM P4*
T2 construct: endogenous in cells; host or cells: human spermatozoa
T2 sequence (P08910 1-425): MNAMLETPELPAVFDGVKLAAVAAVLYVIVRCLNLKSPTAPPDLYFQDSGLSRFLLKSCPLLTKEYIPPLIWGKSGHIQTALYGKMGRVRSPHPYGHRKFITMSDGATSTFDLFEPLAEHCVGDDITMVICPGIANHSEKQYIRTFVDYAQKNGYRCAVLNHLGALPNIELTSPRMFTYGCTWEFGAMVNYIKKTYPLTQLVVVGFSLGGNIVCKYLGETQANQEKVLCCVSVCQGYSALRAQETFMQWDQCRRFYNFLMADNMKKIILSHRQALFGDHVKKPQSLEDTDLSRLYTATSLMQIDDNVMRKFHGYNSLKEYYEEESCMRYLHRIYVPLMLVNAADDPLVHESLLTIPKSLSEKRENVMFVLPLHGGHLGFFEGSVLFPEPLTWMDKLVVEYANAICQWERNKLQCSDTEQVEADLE
Method: After collection, sperm cells were treated with 0.5 units (U) of PI-PLC ([…]; Life Technologies, Carlsbad, Calif.) and incubated at 37° C. for an hour. […] Lysates were added to streptavidin coated magnetic beads (65001; Life Technologies, Carlsbad, Calif.) on ice for another thirty minutes with gentle agitation. Bound proteins were eluted by boiling in Laemmli Sample Buffer in the presence of beta-mercaptoethanol and subjected to SDS-polyacrylamide gel electrophoresis. […] Bands were excised and subjected to in-gel trypsinization after which peptides were extracted and dried for use in proteomic analysis. Protease inhibitors were used throughout the following procedure. Highly motile sperm swim-up fraction was subjected to osmotic shock by a 5 min incubation in 0.5×HS solution, addition of 10 mM EDTA and 10 mM DTT for 10 min, and sonication in a water bath at 25° C. for 5 min. Osmolarity was adjusted by addition of 10×PBS. 5× Laemmli sample buffer was added to a final 1× concentration and the DTT concentration adjusted to 20 mM. An additional 5 min sonication and boiling at 100° C. for 5 min were performed. Total crude cell lysate was loaded onto a 4-20% gradient Tris-HCl CriterionTM SDS-PAGE gel (BioRad). […] Following transfer to PVDF membranes, blots were blocked in 0.1% PBS-Tween20 with 3% IgG free BSA for 15 min and incubated in primary antibodies overnight at 4° C. […]

[6] = test system: human CatSper channel; details: shown previously (Lishko et al., 2011); cited from earlier work
[7] = human spermatozoa, extracellular application

human CatSper channel (Homo sapiens, UniProt Q7RTX7+Q86XQ3+Q8NEC5+Q96P56), sequence (Q8NEC5 whole entry): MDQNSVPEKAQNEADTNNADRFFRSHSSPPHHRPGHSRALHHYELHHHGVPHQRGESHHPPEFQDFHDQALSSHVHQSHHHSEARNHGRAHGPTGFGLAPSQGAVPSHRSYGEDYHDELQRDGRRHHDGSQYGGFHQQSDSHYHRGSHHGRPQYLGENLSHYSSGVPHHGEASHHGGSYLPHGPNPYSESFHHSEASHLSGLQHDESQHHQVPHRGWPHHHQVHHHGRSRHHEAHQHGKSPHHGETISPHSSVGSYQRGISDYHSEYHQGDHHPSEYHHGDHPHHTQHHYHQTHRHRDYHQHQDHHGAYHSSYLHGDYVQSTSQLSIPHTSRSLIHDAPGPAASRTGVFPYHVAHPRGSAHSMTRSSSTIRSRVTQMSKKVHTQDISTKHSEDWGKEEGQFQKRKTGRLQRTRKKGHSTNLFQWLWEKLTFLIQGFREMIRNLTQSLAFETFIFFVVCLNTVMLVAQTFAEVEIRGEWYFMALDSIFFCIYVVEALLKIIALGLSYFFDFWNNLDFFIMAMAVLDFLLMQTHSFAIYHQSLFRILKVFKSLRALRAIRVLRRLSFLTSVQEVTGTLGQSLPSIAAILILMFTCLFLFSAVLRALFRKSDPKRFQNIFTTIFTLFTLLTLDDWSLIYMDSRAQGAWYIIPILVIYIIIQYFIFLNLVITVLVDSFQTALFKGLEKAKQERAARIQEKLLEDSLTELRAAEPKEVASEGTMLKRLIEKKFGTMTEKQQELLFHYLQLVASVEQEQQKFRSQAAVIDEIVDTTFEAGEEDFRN
human CatSper channel (Homo sapiens, UniProt Q7RTX7+Q86XQ3+Q8NEC5+Q96P56), sequence (Q86XQ3 whole entry): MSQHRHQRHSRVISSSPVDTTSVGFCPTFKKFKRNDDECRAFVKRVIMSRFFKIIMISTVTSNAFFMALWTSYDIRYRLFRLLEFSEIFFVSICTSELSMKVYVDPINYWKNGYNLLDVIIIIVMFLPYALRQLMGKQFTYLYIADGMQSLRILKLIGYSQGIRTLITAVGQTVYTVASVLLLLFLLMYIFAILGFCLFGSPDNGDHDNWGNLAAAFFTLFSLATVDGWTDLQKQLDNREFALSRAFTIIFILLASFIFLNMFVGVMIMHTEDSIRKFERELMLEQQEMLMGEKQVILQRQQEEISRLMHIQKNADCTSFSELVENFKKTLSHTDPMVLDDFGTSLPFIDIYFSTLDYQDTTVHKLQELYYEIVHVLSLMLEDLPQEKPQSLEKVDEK
human CatSper channel (Homo sapiens, UniProt Q7RTX7+Q86XQ3+Q8NEC5+Q96P56), sequence (Q96P56 whole entry): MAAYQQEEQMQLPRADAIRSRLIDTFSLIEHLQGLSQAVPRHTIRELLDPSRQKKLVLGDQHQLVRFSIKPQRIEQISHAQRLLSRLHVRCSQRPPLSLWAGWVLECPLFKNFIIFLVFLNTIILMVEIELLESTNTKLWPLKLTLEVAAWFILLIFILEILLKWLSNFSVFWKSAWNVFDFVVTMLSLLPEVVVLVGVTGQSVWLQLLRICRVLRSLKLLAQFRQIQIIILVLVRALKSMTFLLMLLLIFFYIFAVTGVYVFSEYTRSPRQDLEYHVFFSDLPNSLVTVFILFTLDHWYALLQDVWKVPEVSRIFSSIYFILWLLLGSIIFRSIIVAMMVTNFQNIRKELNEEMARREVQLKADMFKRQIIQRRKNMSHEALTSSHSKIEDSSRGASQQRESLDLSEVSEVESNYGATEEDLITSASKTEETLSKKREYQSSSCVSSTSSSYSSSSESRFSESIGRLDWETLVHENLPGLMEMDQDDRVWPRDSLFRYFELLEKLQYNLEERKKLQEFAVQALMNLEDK
human CatSper channel (Homo sapiens, UniProt Q7RTX7+Q86XQ3+Q8NEC5+Q96P56), sequence (Q7RTX7 whole entry): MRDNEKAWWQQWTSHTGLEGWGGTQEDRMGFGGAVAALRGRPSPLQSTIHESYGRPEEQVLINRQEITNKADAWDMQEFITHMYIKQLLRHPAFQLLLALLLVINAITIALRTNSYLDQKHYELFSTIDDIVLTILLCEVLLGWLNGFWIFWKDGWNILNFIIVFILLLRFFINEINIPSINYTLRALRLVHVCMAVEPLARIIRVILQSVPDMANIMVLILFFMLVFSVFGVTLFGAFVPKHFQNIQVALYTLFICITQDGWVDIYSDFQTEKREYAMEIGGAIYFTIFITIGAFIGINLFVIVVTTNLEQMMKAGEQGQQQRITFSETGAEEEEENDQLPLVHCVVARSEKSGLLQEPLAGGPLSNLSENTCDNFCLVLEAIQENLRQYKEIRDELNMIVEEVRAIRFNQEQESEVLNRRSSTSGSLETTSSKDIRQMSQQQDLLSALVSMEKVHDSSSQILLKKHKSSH

Q: Which results are given for `CCCCC/C=C\C/C=C\C/C=C\C/C=C\CCCC(=O)OCC(O)CO` (centres unmarked) [1-AG, 1-arachidonoylglycerol]?
A: percent inhibition of CatSper outward current [1]: 85.0±0.5%; rate of CatSper inactivation, decline in current amplitude τ [1]: 2.7 ± 0.2 min; effect on nascent/basal CatSper current [2]: inhibited ICatSper

Q: Which “inhibition of ICatSper on intracellular application” value [1] does the source give for `CCCCC/C=C\C/C=C\C/C=C\C/C=C\CCCC(=O)OC(CO)CO` [2-AG, 2-arachidonoylglycerol] here?
A: Its value is “could not mimic this effect”.

Q: What about the “percent inhibition of CatSper outward current” value [1] of the same compound?
A: The value was 92.4±3.5%.

Q: And the “rate of CatSper inactivation, decline in current amplitude τ” value [1]?
A: Its value is 1.6 ± 0.3 min.

Q: What about the IC50 ([1]; read-out: median inhibitory concentration (IC50) of ICatSper, inward currents) of the same compound?
A: The IC50 was 670 nM.

Q: What about the IC50 ([1]; read-out: median inhibitory concentration (IC50) of ICatSper, outward currents) of the same compound?
A: Its IC50 is 350 nM.

Q: What about the “effect on nascent/basal CatSper current” value [2] of the same compound?
A: The value was “inhibited ICatSper”.

Q: What about the “inhibition of mouse ICatSper” value ([3]; compared with human ICatSper) of the same compound?
A: The value was “inhibits mouse ICatSper but with less efficacy than it inhibits human ICatSper”.

Q: What about the “percent inhibition against the outward current” value ([3]; mouse CatSper, n=5) of the same compound?
A: The value was 73.9±4.4%.

Q: With `CC(=O)[C@@]1(O)CC[C@H]2[C@@H]3CCC4=CC(=O)CC[C@]4(C)[C@H]3CC[C@@]21C` [17-OH—P] as the compound, how does the “activation of CatSper current (ICatSper)” value ([2]; human spermatozoa) read?
A: The value was “reversibly activated”.

Q: Which “regulation of CatSper by arachidonic acid” value ([2]; ICatSper at +80 mV and −80 mV over time) does the source give for `CCCCC/C=C\C/C=C\C/C=C\C/C=C\CCCC(=O)O` [AA, arachidonic acid] here?
A: The value was “Dual Regulator of CatSper”.

Q: And the “stimulation of mouse acrosome reaction (AR)” value [4]?
A: The value was “stimulate mouse AR to similar levels”.

Q: With `CCCCC/C=C\C/C=C\C/C=C\C/C=C\CCCC(=O)NCCO` [AEA, anandamide] as the compound, how does the “effect on nascent/basal CatSper current” value [2] read?
A: The value was “does not change nascent CatSper behaviour; also recorded: had no effect”.

Q: Which “effect on P4-dependent activation of CatSper (CatSper P4 sensitivity)” value [2] does the source give for `O=C(Nc1ccccc1)N1CCC(Cc2cnc3ccccc3c2)CC1` [PF750] here?
A: Its value is “did not change CatSper sensitivity to P4”.

Q: Which “activation of CatSper current (ICatSper)” value ([2]; human spermatozoa) does the source give for `CCCCC[C@H](O)/C=C/[C@H]1[C@H](O)CC(=O)[C@@H]1CCCCCCC(=O)O` [PGE1, prostaglandin E1] here?
A: The value was “stimulated CatSper activation”.

Q: Which “effect on P4-dependent activation of CatSper (CatSper P4 sensitivity)” value [2] does the source give for `OCC(O)CO` [glycerol] here?
A: Its value is “did not ablate ICatSper or its regulation by P4”.

Q: And the “effect on nascent/basal CatSper current” value [2, 7]?
A: Its value is “did not ablate ICatSper”.

Q: What does the source list for estrogen?
A: ABHD2 in P4* pull-down in the presence of competing steroid [5]: ABHD2 presence in pull-down experiments; interference with P4 activation of CatSper [6]: do not interfere with P4 activation of CatSper

Q: For lysophosphatidylethanolamine [lyso-PE], which “effect on nascent/basal CatSper current” value [2, 7] is on record?
A: The value was “Neither lysophosphatidylinositol (lyso-PI) nor lysophosphatidylethanolamine (lyso-PE) affected nascent CatSper current”.

Q: With lysophosphatidylinositol [lyso-PI] as the compound, how does the “effect on nascent/basal CatSper current” value [2, 7] read?
A: Its value is “Neither lysophosphatidylinositol (lyso-PI) nor lysophosphatidylethanolamine (lyso-PE) affected nascent CatSper current”.
